Source: patent US20070274929A1, “ORAL COMPOSITION COMPRISING CHLORHEXIDINE AND MALTITOL OR ERYTHRITOL OR A MIXTURE THEREOF” (priority 2000, published 2007)

Test: Masking the bitterness of chlorhexidine, panel of trained taste assessors (sip-and-spit, labelled magnitude line scale)
Assay type: in vivo
Settings: for difference of the bitterness of the CHXG/inhibitor mixture from the 0.1% CHXG reference (analysis of variance): ANOVA at the 5% level, reference 0.1% CHXG in 8% ethanol-water; for difference of the bitterness of the CHXG/inhibitor mixture from the 0.1% CHXG reference (analysis of variance) / % suppression of bitterness of 0.1% CHXG: n=18; for % suppression of bitterness of 0.1% CHXG: 8% w/w ethanol in water, reference bitterness set at 70 on line scale 0-100; for masking the bitter taste of chlorhexidine compared with xylitol: inhibitors at 2 & 4% w/w, 0.1% CHXG
Procedure: The efficacy of maltitol, erythritol and xylitol to mask the bitter taste of chlorhexidine digluconate (CHXG) was evaluated using a panel of trained taste assessors.
All test solutions were made up in still mineral water. All tasting sessions were carried out at room temperature (20° C.). Samples were made up w/v (unless otherwise specified) one day before tasting and stored in the refrigerator overnight, then allowed to equilibrate to room temperature the next day before serving.
Eighteen panellists volunteered for the study. The panellists were first screened for their taste acuity using basic identification ranking techniques. 0.20% sodium chloride, 0.054% citric acid, 0.8% sucrose, 0.04% caffeine and 0.15% potassium alum were used to determine their ability to sense and identify saltiness, sourness, sweetness, bitterness and astringency, respectively. The detection and identification thresholds for bitterness were then measured using eight increasing concentrations of quinine hydrochloride (over a range of 0-0.0012%). Panellists were also instructed to rank four random concentrations of caffeine in increasing order of bitterness intensity. A similar experiment was done using quinine hydrochloride. All panellists performed well in those tasks.
The screened panellists were then asked to assess the bitterness intensities of the chlorhexidine mixtures using a “Labelled magnitude line scale” (LMS) as defined by Green et al., Chemical Senses, 1996, 21, 323-334. Solutions were made up containing the bitter inhibitors, 0.1% w/w CHXG, 8% w/w ethanol in water. The following concentrations of inhibitors were used:
Two samples were presented at any one time, one of which was the reference (0.1% CHXG in 8% ethanol-water). Sample presentation was randomised and was duplicated during the course of the study.
The “sip-and-spit” method was used for tasting CHXG solutions. Panellists were instructed to sip 5 ml sample, swirl it around their mouth and spit it out immediately before judging its bitterness intensity. This technique was expected to take 3-4 seconds.
Panellists were instructed to taste the reference first and memorise its bitter intensity. This intensity was assigned the number 70 on the line scale marked 0-100. Panellists were asked to wait until they could no longer feel any bitterness in their mouths (approximately 10 min) before tasting the second solution, whose intensity they then ranked in proportion to the intensity of the reference on the same line scale. Panellists were provided with mineral water to cleanse their palates.
Analysis of Variance (ANOVA) at the 5% level of significance was performed using the EXCEL software to find out whether there were any significant differences between the CHXG reference and the CHXG/inhibitor mixtures. A Fisher Least Significant Difference (LSD) test (O'Mahony M, 1986, Sensory Evaluation of Food—Statistical Methods and Procedures, Marcel Dekker, Inc, New York) was carried out on those samples where a significant difference had been found, to identify which sample means differ from the reference.

[1] = inhibitor 2% w/w in 0.1% w/w CHXG
[2] = inhibitor 4% w/w in 0.1% w/w CHXG

Row | Compound | difference of the bitterness of the CHXG/inhibitor mixture from the 0.1% CHXG reference (analysis of variance) | % suppression of bitterness of 0.1% CHXG [1] [%] | % suppression of bitterness of 0.1% CHXG [2] [%] | masking the bitter taste of chlorhexidine compared with xylitol
1 | OC[C@@H](O)[C@@H](O)CO [Erythritol] | significantly different | 29.2 | 28.2 | more effective than xylitol
2 | OC[C@@H](O)[C@@H](O[C@H]1O[C@H](CO)[C@@H](O)[C@H](O)[C@H]1O)[C@H](O)[C@@H](O)CO [Maltitol] | significantly different | 26.9 | 32.6 | more effective than xylitol
3 | OC[C@@H](O)[C@H](O)[C@@H](O)CO [Xylitol, reference compound] |  | 14.3 | 13.6 | 
